{"source": "ChEMBL document CHEMBL4507265", "about": "(2021)", "key": {"[1]": {"species_on_record": "Rattus norvegicus", "settings": "Compound concentration 10.0 uM; call rule not given here"}, "[2]": {"target": "Adenosine receptor A1 (Homo sapiens) (UniProt P30542)", "sequence (P30542 whole entry)": "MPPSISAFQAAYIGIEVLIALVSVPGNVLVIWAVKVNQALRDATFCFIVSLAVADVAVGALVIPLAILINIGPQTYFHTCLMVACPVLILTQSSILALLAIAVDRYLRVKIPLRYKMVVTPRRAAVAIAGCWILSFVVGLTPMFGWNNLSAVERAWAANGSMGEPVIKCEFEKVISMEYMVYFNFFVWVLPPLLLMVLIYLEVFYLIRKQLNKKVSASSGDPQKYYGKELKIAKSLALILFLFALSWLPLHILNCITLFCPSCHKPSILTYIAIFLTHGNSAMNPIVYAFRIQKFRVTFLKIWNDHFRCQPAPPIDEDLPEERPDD", "settings": "Compound concentration 10.0 uM"}, "[3]": {"target": "Endothelin receptor type B (Homo sapiens) (UniProt P24530)", "sequence (P24530 whole entry)": "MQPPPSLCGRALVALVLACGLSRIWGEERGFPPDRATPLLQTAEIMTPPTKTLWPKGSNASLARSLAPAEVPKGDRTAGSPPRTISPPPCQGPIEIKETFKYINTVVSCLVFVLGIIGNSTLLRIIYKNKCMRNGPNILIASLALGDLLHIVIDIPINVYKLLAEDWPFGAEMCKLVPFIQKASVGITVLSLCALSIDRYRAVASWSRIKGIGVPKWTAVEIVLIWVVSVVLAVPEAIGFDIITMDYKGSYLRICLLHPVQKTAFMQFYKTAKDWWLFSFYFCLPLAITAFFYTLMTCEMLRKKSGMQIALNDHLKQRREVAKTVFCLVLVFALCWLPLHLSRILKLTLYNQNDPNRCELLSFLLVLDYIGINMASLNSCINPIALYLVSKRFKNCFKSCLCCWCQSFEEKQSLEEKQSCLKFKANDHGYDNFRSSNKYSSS", "settings": "Compound concentration 10.0 uM"}, "[4]": {"target": "Sodium-dependent serotonin transporter (Homo sapiens) (UniProt P31645)", "sequence (P31645 whole entry, looked up)": "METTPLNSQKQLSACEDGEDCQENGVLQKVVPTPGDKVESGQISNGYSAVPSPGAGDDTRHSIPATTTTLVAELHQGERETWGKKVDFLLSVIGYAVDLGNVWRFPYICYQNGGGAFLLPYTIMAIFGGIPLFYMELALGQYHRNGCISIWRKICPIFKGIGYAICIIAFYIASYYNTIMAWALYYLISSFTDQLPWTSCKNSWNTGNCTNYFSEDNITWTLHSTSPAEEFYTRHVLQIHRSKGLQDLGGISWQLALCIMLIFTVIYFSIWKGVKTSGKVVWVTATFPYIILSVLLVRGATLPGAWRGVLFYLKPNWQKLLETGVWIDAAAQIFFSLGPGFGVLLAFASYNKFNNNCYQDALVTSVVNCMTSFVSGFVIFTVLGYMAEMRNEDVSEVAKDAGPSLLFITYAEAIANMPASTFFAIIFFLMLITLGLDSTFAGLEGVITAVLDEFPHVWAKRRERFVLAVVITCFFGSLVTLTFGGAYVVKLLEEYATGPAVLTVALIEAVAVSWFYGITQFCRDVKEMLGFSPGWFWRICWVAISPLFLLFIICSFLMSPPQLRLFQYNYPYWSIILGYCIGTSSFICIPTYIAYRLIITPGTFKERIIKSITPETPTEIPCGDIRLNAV", "settings": "Compound concentration 10.0 uM"}, "[5]": {"target": "Kappa-type opioid receptor (Homo sapiens) (UniProt P41145)", "sequence (P41145 whole entry)": "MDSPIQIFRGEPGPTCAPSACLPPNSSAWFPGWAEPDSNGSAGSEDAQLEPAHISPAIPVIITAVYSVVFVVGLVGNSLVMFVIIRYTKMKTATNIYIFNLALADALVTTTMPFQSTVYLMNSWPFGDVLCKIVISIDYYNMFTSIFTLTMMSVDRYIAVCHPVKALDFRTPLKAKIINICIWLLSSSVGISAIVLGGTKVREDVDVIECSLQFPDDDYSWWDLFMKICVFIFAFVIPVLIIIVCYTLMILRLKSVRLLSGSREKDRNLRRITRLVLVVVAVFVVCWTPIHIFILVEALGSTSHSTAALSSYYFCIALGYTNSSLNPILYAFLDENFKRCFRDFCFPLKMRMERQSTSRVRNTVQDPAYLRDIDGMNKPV", "settings": "Compound concentration 10.0 uM"}, "[6]": {"target": "L-type calcium channel, dihydropyridine site (Cav1.2 alpha-1C) (Homo sapiens, UniProt Q13936)", "test": "Inhibition of Calcium Channel L-Type, Dihydropyridine at 10 µM in the Eurofins-Panlabs radioligand binding assay (Eurofins_assay_214600)", "parameters": "ligand concentration 0.1 nM, non-specific ligand with concentration 1 µM Nitrendipine, incubation time 90 min, incubation temperature 25 °C", "settings": "Wistar, rat, rat cerebral cortex preparation, probe [3H] Nitrendipine, 0.1 nM; compound concentration 10 uM; target entry is the homologue from another species"}, "[7]": {"target": "Neuropeptide Y receptor type 2 (Homo sapiens) (UniProt P49146)", "test": "Inhibition of Neuropeptide Y Y2 at 10 µM in the Eurofins-Panlabs radioligand binding assay (Eurofins_assay_257110)", "settings": "Compound concentration 10.0 uM"}, "[8]": {"target": "ATP-sensitive inward rectifier potassium channel 11 (Cricetulus griseus) (UniProt A0A3L7HHE1)", "sequence (A0A3L7HHE1 as listed by the source)": "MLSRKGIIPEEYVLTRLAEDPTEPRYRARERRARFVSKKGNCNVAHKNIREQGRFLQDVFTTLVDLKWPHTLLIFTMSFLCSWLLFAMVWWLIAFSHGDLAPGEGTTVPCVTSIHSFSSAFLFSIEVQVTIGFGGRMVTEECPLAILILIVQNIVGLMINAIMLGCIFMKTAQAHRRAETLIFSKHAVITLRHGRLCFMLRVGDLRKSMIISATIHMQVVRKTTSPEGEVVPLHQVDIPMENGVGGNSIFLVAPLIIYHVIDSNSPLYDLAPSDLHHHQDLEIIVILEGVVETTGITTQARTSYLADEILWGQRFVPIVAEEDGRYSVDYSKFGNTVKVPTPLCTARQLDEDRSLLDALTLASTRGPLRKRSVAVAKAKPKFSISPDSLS", "test": "Inhibition of Potassium Channel [KATP] at 10 µM in the Eurofins-Panlabs radioligand binding assay (Eurofins_assay_265600)", "settings": "Cricetinae; Compound concentration 10.0 uM"}, "[9]": {"species_on_record": "Mus musculus", "test": "Inhibition of Phorbol Ester at 10 µM in the Eurofins-Panlabs radioligand binding assay (Eurofins_assay_264500)", "parameters": "ligand concentration 3 nM", "settings": "Compound concentration 10.0 uM"}, "[10]": {"target": "T1, Muscarinic acetylcholine receptor M1 (Homo sapiens) (UniProt P11229)", "T1 sequence (whole entry)": "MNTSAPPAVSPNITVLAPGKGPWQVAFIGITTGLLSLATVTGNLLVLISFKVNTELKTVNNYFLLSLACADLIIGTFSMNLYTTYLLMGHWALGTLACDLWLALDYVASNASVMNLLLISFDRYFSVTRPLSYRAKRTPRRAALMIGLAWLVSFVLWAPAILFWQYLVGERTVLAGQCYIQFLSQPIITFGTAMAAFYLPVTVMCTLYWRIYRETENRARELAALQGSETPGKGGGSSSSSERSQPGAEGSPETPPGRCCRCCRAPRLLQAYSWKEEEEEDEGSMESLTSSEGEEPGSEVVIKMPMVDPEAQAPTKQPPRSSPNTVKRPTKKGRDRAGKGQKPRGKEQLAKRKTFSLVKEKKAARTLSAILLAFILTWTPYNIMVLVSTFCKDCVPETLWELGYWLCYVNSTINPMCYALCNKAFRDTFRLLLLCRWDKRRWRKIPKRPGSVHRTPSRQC", "settings": "Compound concentration 10.0 uM"}, "[11]": {"target": "Cannabinoid receptor 1 (Homo sapiens) (UniProt P21554)", "sequence (P21554 whole entry)": "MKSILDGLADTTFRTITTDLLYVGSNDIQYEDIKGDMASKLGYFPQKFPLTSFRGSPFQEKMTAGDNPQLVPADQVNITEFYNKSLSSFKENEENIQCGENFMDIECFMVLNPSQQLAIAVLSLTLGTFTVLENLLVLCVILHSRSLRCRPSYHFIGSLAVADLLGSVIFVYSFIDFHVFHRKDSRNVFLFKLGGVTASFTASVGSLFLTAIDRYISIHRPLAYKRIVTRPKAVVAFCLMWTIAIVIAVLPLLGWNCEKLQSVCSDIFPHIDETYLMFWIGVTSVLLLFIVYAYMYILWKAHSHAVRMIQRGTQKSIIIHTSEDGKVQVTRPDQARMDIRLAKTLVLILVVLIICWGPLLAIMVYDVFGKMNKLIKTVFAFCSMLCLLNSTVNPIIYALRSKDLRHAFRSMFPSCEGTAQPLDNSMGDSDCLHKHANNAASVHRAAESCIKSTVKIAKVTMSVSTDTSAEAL", "settings": "Compound concentration 10.0 uM"}, "[12]": {"target": "Sodium-dependent dopamine transporter (Homo sapiens) (UniProt Q01959)", "sequence (Q01959 whole entry)": "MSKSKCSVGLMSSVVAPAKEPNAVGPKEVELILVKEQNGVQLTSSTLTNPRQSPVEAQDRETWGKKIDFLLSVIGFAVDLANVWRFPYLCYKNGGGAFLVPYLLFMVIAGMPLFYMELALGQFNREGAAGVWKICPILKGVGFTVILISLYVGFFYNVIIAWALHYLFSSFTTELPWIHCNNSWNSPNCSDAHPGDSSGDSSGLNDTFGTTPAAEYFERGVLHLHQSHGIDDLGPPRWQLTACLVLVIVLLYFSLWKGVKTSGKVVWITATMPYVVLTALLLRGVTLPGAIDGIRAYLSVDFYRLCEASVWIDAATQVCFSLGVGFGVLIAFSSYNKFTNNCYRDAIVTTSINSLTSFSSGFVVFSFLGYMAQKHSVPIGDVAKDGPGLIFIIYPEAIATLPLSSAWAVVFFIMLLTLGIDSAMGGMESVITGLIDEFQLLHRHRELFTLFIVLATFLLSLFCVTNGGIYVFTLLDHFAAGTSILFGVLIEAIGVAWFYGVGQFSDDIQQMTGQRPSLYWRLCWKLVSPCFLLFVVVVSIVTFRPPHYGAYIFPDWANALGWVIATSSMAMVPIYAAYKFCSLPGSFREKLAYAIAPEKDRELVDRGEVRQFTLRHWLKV"}, "[13]": {"target": "D(1A) dopamine receptor (Homo sapiens) (UniProt P21728)", "settings": "Compound concentration 10.0 uM"}, "[14]": {"target": "B1 bradykinin receptor (Homo sapiens) (UniProt P46663)", "sequence (P46663 whole entry)": "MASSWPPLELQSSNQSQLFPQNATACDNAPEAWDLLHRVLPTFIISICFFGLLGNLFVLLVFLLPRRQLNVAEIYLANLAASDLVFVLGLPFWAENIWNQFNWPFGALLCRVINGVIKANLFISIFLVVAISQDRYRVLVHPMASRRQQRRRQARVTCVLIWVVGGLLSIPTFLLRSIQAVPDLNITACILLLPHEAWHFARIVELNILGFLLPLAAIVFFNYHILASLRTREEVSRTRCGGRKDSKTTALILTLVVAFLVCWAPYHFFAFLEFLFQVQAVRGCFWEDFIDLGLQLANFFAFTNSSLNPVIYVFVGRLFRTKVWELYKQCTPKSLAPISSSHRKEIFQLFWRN", "test": "Inhibition of Bradykinin B1 at 10 µM in the Eurofins-Panlabs radioligand binding assay (Eurofins_assay_212510)", "settings": "Compound concentration 10.0 uM"}, "[15]": {"target": "L-type calcium channel, benzothiazepine site (Cav1.2 alpha-1C) (Homo sapiens, UniProt Q13936)", "test": "Inhibition of Calcium Channel L-Type, Benzothiazepine at 10 µM in the Eurofins-Panlabs radioligand binding assay (Eurofins_assay_214510)", "parameters": "ligand concentration 2 nM, non-specific ligand with concentration 10 µM Diltiazem, incubation time 3h, incubation temperature 4 °C", "settings": "male, Wistar, rat, rat whole brain preparation, probe [3H] Diltiazem, 2 nM; compound concentration 10 uM; target entry is the homologue from another species"}, "[16]": {"target": "T2, Alpha-1A adrenergic receptor (Homo sapiens) (UniProt P35348)", "T2 sequence (whole entry)": "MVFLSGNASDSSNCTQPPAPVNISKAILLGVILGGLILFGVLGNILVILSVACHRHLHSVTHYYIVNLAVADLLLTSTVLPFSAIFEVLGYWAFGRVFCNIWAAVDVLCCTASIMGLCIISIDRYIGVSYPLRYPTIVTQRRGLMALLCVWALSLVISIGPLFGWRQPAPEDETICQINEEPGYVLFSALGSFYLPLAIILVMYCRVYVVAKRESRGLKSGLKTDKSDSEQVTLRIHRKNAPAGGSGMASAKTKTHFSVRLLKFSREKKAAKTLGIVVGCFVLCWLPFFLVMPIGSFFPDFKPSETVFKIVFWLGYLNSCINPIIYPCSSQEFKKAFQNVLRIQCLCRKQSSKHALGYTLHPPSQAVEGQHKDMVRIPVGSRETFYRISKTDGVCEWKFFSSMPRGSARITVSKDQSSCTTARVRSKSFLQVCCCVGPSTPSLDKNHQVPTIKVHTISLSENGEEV", "settings": "Rattus norvegicus; Compound concentration 10.0 uM"}, "[17]": {"species_on_record": "Rattus norvegicus", "test": "Inhibition of Imidazoline I2, Central at 10 µM in the Eurofins-Panlabs radioligand binding assay (Eurofins_assay_241000)", "parameters": "ligand concentration 2 nM", "settings": "Compound concentration 10.0 uM"}, "[18]": {"species_on_record": "Rattus norvegicus", "test": "Inhibition of Glutamate, NMDA, Phencyclidine at 10 µM in the Eurofins-Panlabs radioligand binding assay (Eurofins_assay_233000)", "format": "protein-complex assay", "settings": "Compound concentration 10.0 uM"}, "[19]": {"target": "Delta-type opioid receptor (Homo sapiens) (UniProt P41143)", "sequence (P41143 whole entry)": "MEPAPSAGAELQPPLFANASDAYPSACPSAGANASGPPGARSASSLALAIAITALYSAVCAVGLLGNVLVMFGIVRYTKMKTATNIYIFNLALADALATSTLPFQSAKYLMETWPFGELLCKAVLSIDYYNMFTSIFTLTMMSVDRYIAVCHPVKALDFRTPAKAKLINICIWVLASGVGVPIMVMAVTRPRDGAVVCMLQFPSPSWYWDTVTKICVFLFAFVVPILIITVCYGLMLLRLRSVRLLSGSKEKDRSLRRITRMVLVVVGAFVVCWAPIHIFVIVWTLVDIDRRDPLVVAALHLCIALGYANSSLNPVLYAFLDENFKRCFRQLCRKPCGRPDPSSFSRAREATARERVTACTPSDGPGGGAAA", "settings": "Compound concentration 10.0 uM"}, "[20]": {"target": "T3, 5-hydroxytryptamine receptor 1A (Homo sapiens) (UniProt P08908)", "T3 sequence (whole entry)": "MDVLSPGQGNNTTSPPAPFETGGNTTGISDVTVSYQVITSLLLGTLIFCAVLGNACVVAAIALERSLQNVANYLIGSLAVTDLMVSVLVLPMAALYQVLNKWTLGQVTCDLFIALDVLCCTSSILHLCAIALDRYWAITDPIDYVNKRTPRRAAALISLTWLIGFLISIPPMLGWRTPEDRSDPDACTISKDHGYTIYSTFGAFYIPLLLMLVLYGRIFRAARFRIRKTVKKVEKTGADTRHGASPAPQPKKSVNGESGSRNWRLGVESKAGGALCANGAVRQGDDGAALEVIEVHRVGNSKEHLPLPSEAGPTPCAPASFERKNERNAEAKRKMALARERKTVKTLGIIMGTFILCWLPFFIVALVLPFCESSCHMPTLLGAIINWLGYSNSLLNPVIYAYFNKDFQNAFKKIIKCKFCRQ", "settings": "Compound concentration 10.0 uM"}, "[21]": {"target": "Alpha-2B adrenergic receptor (Homo sapiens, UniProt P18089)", "sequence (P18089 whole entry)": "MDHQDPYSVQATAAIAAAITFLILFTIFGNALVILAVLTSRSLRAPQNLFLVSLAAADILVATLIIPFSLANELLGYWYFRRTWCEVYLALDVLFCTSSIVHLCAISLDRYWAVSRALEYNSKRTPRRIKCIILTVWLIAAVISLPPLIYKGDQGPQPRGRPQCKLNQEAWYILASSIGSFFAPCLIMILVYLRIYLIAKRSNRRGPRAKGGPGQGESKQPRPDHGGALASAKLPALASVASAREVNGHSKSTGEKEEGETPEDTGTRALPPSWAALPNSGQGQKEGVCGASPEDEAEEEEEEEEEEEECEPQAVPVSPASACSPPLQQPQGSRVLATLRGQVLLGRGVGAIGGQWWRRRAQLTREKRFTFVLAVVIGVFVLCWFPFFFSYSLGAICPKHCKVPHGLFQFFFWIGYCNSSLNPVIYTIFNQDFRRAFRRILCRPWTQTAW", "test": "GPCRScan assay: inhibition of Alpha2B", "parameters": "radioligand conc. used [nm] 1.5 – 2.0, parental cells HEKT"}, "[22]": {"target": "Histamine H3 receptor (Homo sapiens) (UniProt Q9Y5N1)", "sequence (Q9Y5N1 whole entry)": "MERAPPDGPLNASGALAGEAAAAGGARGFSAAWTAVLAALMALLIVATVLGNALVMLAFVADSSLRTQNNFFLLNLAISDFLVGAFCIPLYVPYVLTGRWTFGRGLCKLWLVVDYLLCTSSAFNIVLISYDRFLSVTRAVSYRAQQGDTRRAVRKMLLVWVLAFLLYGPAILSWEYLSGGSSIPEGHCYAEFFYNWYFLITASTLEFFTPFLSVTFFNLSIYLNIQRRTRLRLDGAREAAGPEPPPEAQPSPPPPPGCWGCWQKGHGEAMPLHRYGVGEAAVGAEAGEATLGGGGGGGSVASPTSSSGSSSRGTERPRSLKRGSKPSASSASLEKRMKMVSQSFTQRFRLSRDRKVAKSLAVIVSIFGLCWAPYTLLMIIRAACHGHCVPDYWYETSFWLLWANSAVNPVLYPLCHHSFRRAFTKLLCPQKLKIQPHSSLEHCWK", "settings": "Compound concentration 10.0 uM"}, "[23]": {"target": "Alpha-2C adrenergic receptor (Homo sapiens, UniProt P18825)", "test": "GPCRScan assay: inhibition of Alpha2C", "parameters": "radioligand conc. used [nm] 0.5 – 1.0, parental cells stable MDCK"}}}
{"compound": "NS(=O)(=O)c1cc(NC(=O)Cc2ccccc2)ccc1Oc1cccc(Cl)c1", "note": "[BAY-1797]", "values": [{"measurement": "inhibition", "setting": "[1]", "value": -10, "unit": "%"}, {"measurement": "inhibition", "setting": "[2]", "value": 35, "unit": "%"}, {"measurement": "inhibition", "setting": "[3]", "value": -1, "unit": "%"}, {"measurement": "inhibition", "setting": "[4]", "value": 4, "unit": "%"}, {"measurement": "inhibition", "setting": "[5]", "value": 10, "unit": "%"}, {"measurement": "inhibition at 90 min, 10 µM", "setting": "[6]", "value": "21% (not active)"}, {"measurement": "inhibition", "setting": "[7]", "value": 8, "unit": "%"}, {"measurement": "inhibition", "setting": "[8]", "value": -9, "unit": "%"}, {"measurement": "inhibition", "setting": "[9]", "value": 4, "unit": "%"}, {"measurement": "inhibition", "setting": "[10]", "value": -6, "unit": "%"}, {"measurement": "inhibition", "setting": "[11]", "value": 44, "unit": "%"}, {"measurement": "inhibition", "setting": "[12]; Compound concentration 3.0 uM", "value": 60, "unit": "%"}, {"measurement": "inhibition", "setting": "[12]; Compound concentration 10.0 uM", "value": 81, "unit": "%"}, {"measurement": "inhibition", "setting": "[13]", "value": 11, "unit": "%"}, {"measurement": "inhibition", "setting": "[14]", "value": 11, "unit": "%"}, {"measurement": "inhibition at 3 h, 10 µM", "setting": "[15]", "value": "17% (not active)"}, {"measurement": "inhibition", "setting": "[16]", "value": 16, "unit": "%"}, {"measurement": "inhibition", "setting": "[17]", "value": 10, "unit": "%"}, {"measurement": "inhibition", "setting": "[18]", "value": -1, "unit": "%"}, {"measurement": "inhibition", "setting": "[19]", "value": 4, "unit": "%"}, {"measurement": "inhibition", "setting": "[20]", "value": 7, "unit": "%"}, {"measurement": "Ki", "setting": "[21]; read-out: Ki", "value": 4.29, "unit": "µM"}, {"measurement": "Ki", "setting": "[21]; read-out: pKi (converted)", "value": 4.32, "unit": "µM"}]}
{"compound": "NS(=O)(=O)c1cc(NC(=O)C2(c3ccccc3Cl)CC2)ccc1Oc1cccc(Cl)c1", "note": "[BAY-207]", "values": [{"measurement": "inhibition", "setting": "[22]", "value": 3.87, "unit": "%"}, {"measurement": "Ki", "setting": "[23]", "value": 0.654, "unit": "µM"}]}
